Values quoted from earlier work as cited in patent US20250333422A1, “AMORPHOUS BERBERINE WITH ENHANCED BIOAVAILABILITY” (Nature's Way Products, LLC, priority 2024, published 2025).
Where a name gives a salt, the structure may show the parent alone.

How the values were obtained:
[1] = berberine metabolites
[2] = not given; remark: listed apart in the source

SMILES	biological activities for antioxidative, hepatoprotective, and hypolipidemic effects [1]	other results
COc1cc2c(cc1O)CC[n+]1cc3c(OC)c(OC)ccc3cc1-2 [jatrorrhizine]	showed biological activities	
COc1ccc2cc3[n+](cc2c1O)CCc1cc2c(cc1-3)OCO2 [berberrubine]	showed biological activities	
COc1ccc2c(c1OC)CN1CCc3cc4c(cc3C1=C2)OCO4 [dhBB, dihydroberberine]		bioavailability of berberine versus an oral dosage of standard berberine: 5 times
COc1ccc2cc3[n+](cc2c1OC)CCc1cc(O)c(O)cc1-3 [demethyleneberberine]	showed biological activities	
COc1c(O)ccc2cc3[n+](cc12)CCc1cc2c(cc1-3)OCO2 [thalifendine]	showed biological activities	
COc1ccc2cc3[n+](cc2c1OC)CCc1cc2c(cc1-3)OCO2 [Berberine, Berberine HCl]		share of dose that goes into the lower bowel unabsorbed ([2]; oral dose): 99%; bioavailability ([2]; standard crystalline berberine, oral): < 1%
